Entries after “also recorded” stand apart in the source; their conditions may differ.
Assay: Plasma and brain metabolite levels by HPLC after a single i.p. cystamine injection (dose-response study)
Type: in vivo, C57BL/6 mice
Description: Young adult (9-week old, 25 g) male C57BL/6 mice were purchased from Charles River Laboratories (Montréal, QC, Canada). Animals were housed four per cage under standard conditions with free access to food and water, randomized and handled under the same conditions by one investigator. All experiments were performed in accordance with the Canadian Council on Animal Care and were approved by the Institutional Committee of the Centre Hospitalier de l'Université Laval (CHUL). Throughout the experiment, the health status of all mice included in the study was closely monitored. To clearly identify the active intermediate following cystamine injection, as well as to understand its systemic and cerebral metabolism, a single intraperitoneal (i.p.) injection of cystamine was administered to normal adult C57BL/6 male mice using three different doses: 10, 50, and 200 mg/kg, as determined in prior publications (Tremblay et al. 2006; Gibrat et al. 2010). These doses were ultimately compared with saline injections. Cystamine was dissolved in sterile saline (0.9%) and injected 1, 3, 12, 24 and 48 h before killing. Animals were sacrificed under deep anesthesia with ketamine/xylazine and perfused via intracardiac infusion with 0.1 M phosphate-buffered saline. After intracardiac perfusion, brains were collected, snap-frozen in 2-methyl-butane and then stored at −80° C. until cryostat dissection for HPLC analyses. A total of 200 mice were assigned to this study (n=10 per group).
HPLC coupled to fluorescence detection was used in cysteine and cysteamine quantification of both sets of experiments: the dose-response study and in situ cerebral perfusion (ISCP) procedures. Frontal cortex were homogenized in 200 μL of NaHCO3 and then centrifuged at 15 700 g (4° C.) for 20 min. Fifty μl of supernatant were directly derivatized with 30 μL of 4-fluoro-7-sulfamoylbenzo-furazan (ABD-F) reagent. The alkylation reaction was completed at 55° C. for 15 min and stopped with 4.9 μL HCl 12 N. After a 10-min centrifugation at 7500 g (4° C.), the supernatant were immediately injected into the chromatograph consisting of a Waters 717 plus autosampler automatic injector set at 4° C., a Waters 1525 binary pump equipped with an Atlantis dC18 ([…]; 3.9×150 mm) column, and a Waters 2487 Dual Absorbance detector (Waters limited, Lachine, QC, Canada). The excitation was set at 385 nm and emission at 515 nm. The mobile phase, which consisted in 2.5% methanol and 0.1 M ammonium acetate adjusted at pH 4.0, was delivered at 1 mL/min (Santa et al. 2006). Peaks were identified and quantified using Breeze software (Waters limited). HPLC quantifications were normalized to protein concentrations. Protein measurements were determined with a bicinchoninic acid protein assay kit (Pierce, Rockford, Ill., USA) as described by the manufacturer's protocol.
Taurine and hypotaurine were measured by HPLC coupled with UV detection. Supernatant from NaHCO3 brain (bregma 1.54 to −0.58 mm) extracts (see section above for details) were directly derivatized with the reagent dansyl chloride (Sigma-Aldrich, St. Louis, Mo., USA) based on modified published methods (Saller and Czupryna 1989; Calon et al. 1999). Briefly, 50 μL of dansyl chloride (1.2 mg/mL) and 50 μL of sample or standard solution were mixed and then incubated for 30 min at 90° C. After a 10-min centrifugation at 7500 g (4° C.), supernatants were immediately injected into the chromatograph described above. Absorbance was set at 337 nm and the sensitivity at 0.5 absorbance unit full scale. […] Results were obtained using the same method as described above.

[1] = single i.p. cystamine 10, 50 or 200 mg/kg
[2] = single i.p. cystamine 10, 50 or 200 mg/kg, 1-48 h

- plasma cysteamine level (cystamine-treated mice, single i.p. dose): undetectable
- brain cysteamine level (single i.p. cystamine 200 mg/kg, 1 h post-injection, vs saline): significant increase
- brain hypotaurine level [2]: no significant alteration
- brain taurine level [2]: no significant alteration
- brain cysteamine level (single i.p. cystamine, all three doses (10, 50, 200 mg/kg), each time point): marked increased in brain cysteamine
- plasma cysteine level (single i.p. cystamine, up to 200 mg/kg (data not shown)): did not affect
- brain cysteine level (single i.p. cystamine, up to 200 mg/kg, all time points): did not affect; also recorded: stable
SMILES: NCCSSCCN [cystamine, Cystamine]
- brain cysteamine level (single i.p. cystamine 50 mg/kg, 1 h post-injection, vs saline): significant increases; also recorded: significantly increased
- plasma hypotaurine level [1]: remained under or close to the detection threshold
- plasma taurine level [1]: remained under or close to the detection threshold
- brain cysteamine level (single i.p. cystamine (200 mg/kg per FIG. 7), 3 h post-injection, vs saline): remained significantly elevated; also recorded: significant increase

From US20140073694A1, “CYSTAMINE ANALOGUES FOR THE TREATMENT OF PARKINSON'S DISEASE” (UNIVERSITE LAVAL, priority 2011, published 2014)
